The record followed here is US12662451B2, “Chemical compounds and uses thereof” (GLAXOSMITHKLINE INTELLECTUAL PROPERTY (NO.4) LIMITED, priority 2023, dated 2026).

Where a name gives a salt, the structure may show the parent alone.

For the first test, the target named is T1, recombinant full-length WRN protein (1-1432) (Homo sapiens, UniProt Q14191).
T1 construct: recombinant full-length WRN protein (1-1432)
T1 sequence (Q14191 whole entry): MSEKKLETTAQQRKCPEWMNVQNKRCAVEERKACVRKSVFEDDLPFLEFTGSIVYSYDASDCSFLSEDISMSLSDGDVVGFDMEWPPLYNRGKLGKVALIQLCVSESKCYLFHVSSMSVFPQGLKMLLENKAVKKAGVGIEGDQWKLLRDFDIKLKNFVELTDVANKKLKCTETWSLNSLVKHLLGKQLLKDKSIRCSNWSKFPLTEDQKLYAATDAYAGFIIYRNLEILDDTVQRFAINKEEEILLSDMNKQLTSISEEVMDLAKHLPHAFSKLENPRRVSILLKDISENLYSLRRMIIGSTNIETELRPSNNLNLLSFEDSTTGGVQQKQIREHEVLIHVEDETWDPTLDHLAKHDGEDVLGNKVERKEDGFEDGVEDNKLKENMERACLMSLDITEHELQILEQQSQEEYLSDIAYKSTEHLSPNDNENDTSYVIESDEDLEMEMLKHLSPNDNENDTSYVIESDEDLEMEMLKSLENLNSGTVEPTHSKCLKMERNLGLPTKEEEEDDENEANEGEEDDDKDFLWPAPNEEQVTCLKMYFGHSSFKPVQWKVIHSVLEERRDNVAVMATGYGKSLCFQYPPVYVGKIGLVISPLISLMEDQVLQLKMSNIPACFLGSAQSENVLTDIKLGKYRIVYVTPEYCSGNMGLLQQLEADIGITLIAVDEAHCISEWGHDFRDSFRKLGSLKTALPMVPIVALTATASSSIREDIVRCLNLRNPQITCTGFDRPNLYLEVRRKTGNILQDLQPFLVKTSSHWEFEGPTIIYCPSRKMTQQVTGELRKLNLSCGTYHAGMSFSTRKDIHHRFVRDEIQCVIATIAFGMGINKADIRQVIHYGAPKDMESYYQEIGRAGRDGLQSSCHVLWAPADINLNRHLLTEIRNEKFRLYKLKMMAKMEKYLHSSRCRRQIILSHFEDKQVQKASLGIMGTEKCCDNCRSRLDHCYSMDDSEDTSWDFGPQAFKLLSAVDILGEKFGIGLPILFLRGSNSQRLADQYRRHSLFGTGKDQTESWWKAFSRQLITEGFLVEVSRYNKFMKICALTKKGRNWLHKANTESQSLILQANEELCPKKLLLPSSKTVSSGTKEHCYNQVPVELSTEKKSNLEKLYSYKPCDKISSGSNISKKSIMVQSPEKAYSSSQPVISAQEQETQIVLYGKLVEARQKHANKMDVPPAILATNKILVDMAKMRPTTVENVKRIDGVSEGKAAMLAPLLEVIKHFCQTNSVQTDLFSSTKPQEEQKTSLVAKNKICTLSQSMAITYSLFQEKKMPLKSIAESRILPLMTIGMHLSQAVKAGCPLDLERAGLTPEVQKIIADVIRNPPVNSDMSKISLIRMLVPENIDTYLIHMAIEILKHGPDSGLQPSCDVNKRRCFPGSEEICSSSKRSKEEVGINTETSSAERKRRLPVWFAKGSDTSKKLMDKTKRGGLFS
As to the kind of experiment: WRN unwinding activity, fluorogenic 384-well assay (Example A). The note with it: 4 hr UNW pIC50, WRN unwinding activity, Table 2. The test is classed as biochemical. The protocol:
Functional WRN unwinding activity can be measured using a fluorogenic plate based 384 well assay configured to measure the separation of labeled double stranded DNA substrate. Compounds were dosed out in neat DMSO with a 1:3 serial dilution scheme. 100 nL of compound was stamped into Greiner low volume black assay plates (Greiner Cat #784076) using the Echo Acoustic Dispenser to generate assay ready plates. All solutions were prepared in assay buffer (25 mM TRIS (pH8.0), 5 mM NaCl, 2 mM MgCl2, 1 mM DTT, 0.05% BSA) for this 10 μL low volume reaction. To prepare the solutions, a 2×WRN Enzyme cocktail was made containing 200 pM of recombinant full-length WRN protein (1-1432). A 2× Substrate cocktail was made to consist of both 200 μM ATP (any ultrapure ATP sample) and 12 nM of the fluorescent quenched labeled double stranded DNA oligomer (IDT Custom synthesis; 5′-5IABkFQ (SEQ ID NO. 1)/GCACTGGCCGTCGTTTTACGGTCGTGACT-3′ (SEQ ID NO. 2): 5′-TTTTTTACTTAACGACGGCCAGTGC (SEQ ID NO. 3)/36-TAMTSP/-3′ (SEQ ID NO. 4)). To start the reaction, 5 μL of assay buffer was added to a single column to serve as the low control. Following this, 5 μL of 2×WRN Enzyme was added in all wells except the buffer low control wells. The reaction plate was covered and incubated at ambient temperature for 4 hours to allow for time dependent inhibition if it existed. After 4 hours, the addition of 5 μL of 2×-ATP/DNA substrate cocktail was added across all wells of the assay plate. This initiated the reaction, as the plate was incubated at ambient temperature for 60 minutes for the unwinding reaction to occur. A 10 mM EDTA solution was prepared and added at 5 μL across the entire plate after 60 minutes to quench the samples for an endpoint measurement. Fluorescent intensity was measured using excitation and emission wavelengths of 525 nm and 598 nm, respectively. High florescent intensity (DMSO with buffer) represents full inhibition of unwinding activity and low florescent intensity (DMSO with enzyme) represents no inhibition of unwinding activity. The potency of the compounds was determined using a four-parameter inhibition model to generate pIC50, Hill Slope, maximum inhibition (see Table 2).
Turning to `CN(c1ccc([C@H]2CCC[C@@H](COc3ccc(C(F)(F)F)cc3)[C@@H]2C(=O)O)cc1)S(=O)(=O)c1cccc([C@H]2CCCNC2)c1` (relative stereo) [Example 213, (1R,2S,6R)-2-(4-((N-methyl-3-((R*)-piperidin-3-yl)phenyl)sulfonamido)phenyl)-6-((4-(trifluoromethyl)phenoxy)methyl)cyclohexane-1-carboxylic acid, formic acid salt], the IC50 is 39.8 nM.

The same test, now with this note: WRN unwinding activity, 4 hr; Table 2; read-out: 4 hr UNW pIC50 (converted).
On to `CC#Cc1cc([C@H]2CCC[C@@H](C(=O)Nc3ccc(C(F)(F)F)cc3F)[C@@H]2C(=O)O)ccc1C(F)(F)F` (racemic) [Example 240, rac-(1R,2R,6S)-2-((2-fluoro-4-(trifluoromethyl)phenyl)carbamoyl)-6-(3-(prop-1-yn-1-yl)-4-(trifluoromethyl)phenyl)cyclohexane-1-carboxylic acid], for which the IC50 was 3980 nM.
On to `O=C(Nc1ccc(C(F)(F)F)cc1)[C@@H]1CCC[C@H](c2ccc(Br)cc2)[C@@]1(F)C(=O)O` (racemic) [Example 243, rac-(1R,2S,6R)-2-(4-bromophenyl)-1-fluoro-6-((4-(trifluoromethyl)phenyl)carbamoyl)cyclohexane-1-carboxylic acid], for which the IC50 was 5010 nM.
On the same count and under the same terms, the figure for `O=C(O)[C@@H]1[C@@H](c2ccc(C(F)(F)F)cc2CO)CCC[C@H]1C(=O)Nc1ccc(C(F)(F)F)cc1F` (racemic) [Example 246, rac-(1R,2R,6S)-2-((2-fluoro-4-(trifluoromethyl)phenyl)carbamoyl)-6-(2-(hydroxymethyl)-4-(trifluoromethyl)phenyl)cyclohexane-1-carboxylic acid] is 126 nM.
The same measure, in the same setting: under `O=C(O)[C@@H]1[C@@H](c2ccc(C(F)(F)F)cc2)CCC[C@H]1C(=O)Nc1ccc(C(F)(F)F)cc1F` (racemic) [Example 247, rac-(1R,2R,6S)-2-((2-fluoro-4-(trifluoromethyl)phenyl)carbamoyl)-6-(4-(trifluoromethyl)phenyl)cyclohexane-1-carboxylic acid] stands 79.4 nM; under `CCN[C@@H]1CC[C@@H](C(=O)Nc2ccc(C(C)C)cc2)[C@H](C(=O)O)[C@H]1c1ccc(N(C)S(=O)(=O)c2ccc3c(c2)nc(C)n3C)cc1` (racemic) [Example 249, rac-(1R,2S,3R,6R)-3-(ethylamino)-6-((4-isopropylphenyl)carbamoyl)-2-(4-((N,1,2-trimethyl-1H-benzo[d]imidazole)-5-sulfonamido)phenyl)cyclohexane-1-carboxylic acid], 1.58 nM.
Regarding `Cc1nc2cc(S(=O)(=O)N(C)c3ccc([C@@H]4CCC[C@H](C(=O)Nc5ccc(C(F)(F)F)cc5F)[C@H]4C(=O)O)cc3C#N)ccc2n1C` (relative stereo) [Example 163, rel-(1R,2S,6R)-2-(3-cyano-4-((N,1,2-trimethyl-1H-benzo[d]imidazole)-5-sulfonamido)phenyl)-6-((2-fluoro-4-(trifluoromethyl)phenyl)carbamoyl)cyclohexane-1-carboxyl c acid], the IC50 was 20 nM.
Still for that read-out and setting: the figure for `Cc1nc2cc(S(=O)(=O)N(C)c3ccc([C@H]4C[C@H](N(C)C)C[C@@H](C(=O)Nc5ccc(C(F)(F)F)cc5F)[C@@H]4C(=O)O)cc3)ccc2n1C` (relative stereo) [Example 253, rel-(1R,2R,4S,6S)-4-(dimethylamino)-2-((2-fluoro-4-(trifluoromethyl)phenyl)carbamoyl)-6-(4-((N,1,2-trimethyl-1H-benzo[d]imidazole)-5-sulfonamido)phenyl)cyclohexane-1-carboxylic acid] is 2 nM; for `Cc1nc2cc(S(=O)(=O)Nc3ccc([C@H]4CCC[C@@H](C(=O)Nc5ccc(C(F)(F)F)cc5F)[C@@H]4C(=O)O)cc3)ccc2[nH]1` (relative stereo) [Example 258, rel-(1R,2R,6S)-2-((2-fluoro-4-(trifluoromethyl)phenyl)carbamoyl)-6-(4-((2-methyl-1H-benzo[d]imidazole)-5-sulfonamido)phenyl)cyclohexane-1-carboxylic acid] it is 631 nM; for `Cc1nc2cc(S(=O)(=O)N(C)c3ccc([C@H]4CNC[C@@H](C(=O)Nc5ccc(C(F)(F)F)cc5F)[C@@H]4C(=O)O)cc3)ccc2n1C` (relative stereo) [Example 308, rel-(3R,4S,5R)-3-((2-fluoro-4-(trifluoromethyl)phenyl)carbamoyl)-5-(4-((N,1,2-trimethyl-1H-benzo[d]imidazole)-5-sulfonamido)phenyl)piperidine-4-carboxylic acid] it is 1.58 nM.
For the molecule `Cc1nc2cc(S(=O)(=O)N(C)c3ccc([C@@H]4C[C@@H](N5CCOCC5)C[C@H](C(=O)Nc5ccc(C(F)(F)F)cc5F)[C@H]4C(=O)O)cc3)ccc2n1C` (relative stereo) [Example 339, rel-(1R,2R,4S,6S)-2-((2-fluoro-4-(trifluoromethyl)phenyl)carbamoyl)-4-morpholino-6-(4-((N,1,2-trimethyl-1H-benzo[d]imidazole)-5-sulfonamido)phenyl)cyclohexane-1-carboxylic acid], the IC50 was 631 nM.
In the case of `Cc1nc2cc(S(=O)(=O)N(C)c3ccc([C@@H]4C[C@@H](N5CCC(F)(F)CC5)C[C@H](C(=O)Nc5ccc(C(F)(F)F)cc5F)[C@H]4C(=O)O)cc3)ccc2n1C` (relative stereo) [Example 341, rel-(1R,2R,4S,6S)-4-(4,4-difluoropiperidin-1-yl)-2-((2-fluoro-4-(trifluoromethyl)phenyl)carbamoyl)-6-(4-((N,1,2-trimethyl-1H-benzo[d]imidazole)-5-sulfonamido)phenyl)cyclohexane-1-carboxylic acid], the IC50 was 7940 nM.
For the molecule `Cc1nc2cc(S(=O)(=O)N(C)c3ccc([C@@H]4C[C@@H](N5CC6(F)CC5C6)C[C@H](C(=O)Nc5ccc(C(F)(F)F)cc5F)[C@H]4C(=O)O)cc3)ccc2n1C` (relative stereo) [Example 399, rel-(1R,2R,4S,6S)-2-((2-fluoro-4-(trifluoromethyl)phenyl)carbamoyl)-4-(4-fluoro-2-azabicyclo[2.1.1]hexan-2-yl)-6-(4-((N,1,2-trimethyl-1H-benzo[d]imidazole)-5-sulfonamido)phenyl)cyclohexane-1-carboxylic acid], the IC50 is 12600 nM.
With `Cc1nc2cc(S(=O)(=O)N(C)c3ccc([C@H]4CCC[C@H](C(=O)Nc5ccc(C(C)C)cc5)[C@@H]4C(=O)O)cc3)ccc2n1C` (single isomer, unassigned) [Example 74], the IC50 is 251 nM.
On to `Cc1nc2cc(S(=O)(=O)N(C)c3ccc([C@H]4CCC[C@@H](C(=O)Nc5ccc(C(C)C)cc5)[C@H]4C(=O)O)cc3)ccc2n1C` (single isomer, unassigned) [Example 76], for which the IC50 was 1260 nM.
Turning to `Cc1nc2cc(S(=O)(=O)N(C)c3ccc([C@H]4CCC[C@@H](C(=O)Nc5ccc(C(C)C)cc5)[C@@H]4C(=O)O)cc3)ccc2n1C` (single isomer, unassigned) [Example 79], the IC50 was 501 nM.
Regarding `CN(c1ccc([C@H]2CCC[C@@H](C(=O)Nc3ccc(C(F)(F)F)cc3F)[C@@H]2C(=O)O)cc1)S(=O)(=O)c1ccc2[nH]cnc2c1` (single isomer, unassigned) [Example 85], the IC50 is 251 nM.
Consider `CN(c1ccc([C@H]2CCC[C@@H](C(=O)Nc3ccc(C(F)(F)F)cc3F)[C@@H]2C(=O)O)cc1)S(=O)(=O)c1ccc2c(c1)ncn2C` (single isomer, unassigned) [Example 87], for which the IC50 was 316 nM.
